Experimental data as given in PubChem BioAssay (NCI).
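Protocol summary: plate cells (96-well), add compound at 5 concentrations, incubate 48 h, interpolate endpoints linearly. GI50 marks 50% less growth. TGI is the concentration that stops growth completely.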

What was measured:
Test in all cases: NCI-60 cell line screen, 48 h
[1] = test system: SF-295 CNS
[2] = test system: PC-3 prostate
[3] = test system: CAKI-1 renal
[4] = test system: SK-OV-3 ovarian
[5] = test system: HCC-2998 colon
[6] = test system: OVCAR-3 ovarian
[7] = test system: RXF 393 renal
[8] = test system: SW-620 colon
[9] = test system: A549 NSCLC

Row | Compound | TGI [1] [µM] | TGI [2] [µM] | TGI [3] [µM] | TGI [4] [µM] | TGI [5] [µM] | TGI [6] [µM] | TGI [7] [µM] | TGI [8] [µM] | TGI [9] [µM] | GI50 [1] [µM] | GI50 [2] [µM] | GI50 [3] [µM] | GI50 [4] [µM] | GI50 [5] [µM] | GI50 [6] [µM] | GI50 [8] [µM] | GI50 [9] [µM] | GI50 [7] [µM]
1 | C=C(C)C12CC(COC(=O)c3ccccc3)C34OC5(OC1C3C1OC1(CO)C(O)C1(O)C(OC(=O)c3ccccc3)C(C)C(C(C)CCCCCCC5O)C14)O2 (configuration not stated) | > 100 | > 100 | > 100 | > 100 | > 64.8 | > 100 | > 100 | – | – | – | – | – | – | – | – | – | – | –
2 | COc1cccc(-c2cc(=O)c3ccccc3o2)c1N | > 100 | > 100 | > 100 | > 100 | > 100 | > 100 | > 100 | > 100 | > 100 | – | – | – | – | – | – | – | – | –
3 | Cc1nnc(Nc2ccccc2)o1 | > 100 | > 100 | > 100 | > 100 | – | > 100 | > 100 | > 100 | > 100 | – | – | – | – | – | – | – | – | –
4 | c1ccc(C2C3=C(Nc4ncnn42)c2ccccc2C3)cc1 (configuration not stated) | > 100 | – | > 100 | > 100 | > 100 | 30.3 | > 100 | 17.4 | > 100 | – | – | – | – | – | – | – | – | –
5 | C[C@@]12[C@H]3CC[C@@H]1[C@H](O)C(=O)N2CC3 | > 100 | > 100 | > 100 | > 100 | > 100 | > 100 | > 100 | > 100 | > 100 | – | – | – | – | – | – | – | – | –
6 | COc1ccc(C2CC(c3c(O)ccc4ccccc34)=NN2c2ccc([N+](=O)[O-])cc2[N+](=O)[O-])cc1OC (configuration not stated) | > 87.1 | > 70.3 | 69.1 | > 88 | > 100 | 58.3 | > 71.1 | > 100 | 98.3 | – | – | – | – | – | – | – | – | –
7 | CN(C)/N=N/c1nc2c(c(=O)n(C)c(=O)n2C)n1C | > 100 | > 100 | > 100 | > 100 | > 100 | > 100 | > 100 | > 100 | > 100 | – | – | – | – | – | – | – | – | –
8 | Cc1ccc(C(=O)Nc2ccc(CP(=O)(O)O)cc2CP(=O)(O)O)cc1NC(=O)c1cccc(N)c1 | > 100 | > 100 | > 100 | > 100 | > 100 | > 100 | > 100 | > 100 | > 100 | – | – | – | – | – | – | – | – | –
9 | COCOC1/C=C/CCCC#C[C@H](C)C(=O)CC1 (some centres not stated) | 31.7 | 21.5 | 24.7 | 29.3 | 28.9 | 15.2 | 23.4 | 5.64 | 21.1 | – | – | – | – | – | – | – | – | –
10 | O=C(O)c1c2c(cc3c1CC1(Cc4ccccc4C1)C3)CCC2 | > 100 | > 100 | > 100 | > 100 | > 100 | > 100 | > 100 | > 100 | > 100 | – | – | – | – | – | – | – | – | –
11 | Cc1nc(-c2ccc([N+](=O)[O-])cc2)cn2c1nc1ccccc12 | > 100 | > 100 | > 100 | > 100 | – | > 100 | > 100 | > 100 | > 100 | – | – | – | – | – | – | – | – | –
12 | CCN(CC)CCc1c2c(nc3ccccc13)C(=O)c1cccnc1C2=O | 5.41 | 18.6 | 4.9 | 4.22 | 7.55 | 5.8 | 7 | 12.7 | 8.65 | – | – | – | – | – | – | – | – | –
13 | COc1ccc2[nH]c(O)c(/C=c3/cc4c(c(-c5cc(OC)c(OC)c(OC)c5)n3)=Nc3ccccc3-4)c2c1 | > 100 | > 100 | > 100 | > 100 | > 100 | > 100 | 41.9 | > 100 | > 100 | 8.97 | 5.47 | > 100 | > 100 | 34 | 8.48 | 4.96 | 8.66 | 2.41
14 | C=C1CC(COc2cc(=O)oc3ccccc23)(c2ccccc2)OC1=O (configuration not stated) | 22.7 | 5.9 | 2.67 | 16.1 | 4.21 | 1.87 | – | 3.35 | 25.1 | – | – | – | – | – | – | – | – | –
15 | CCOP(=O)(OCC)/C(C#N)=C/c1cnc(-c2ccccc2)[nH]1 | > 100 | > 100 | > 100 | > 100 | > 100 | > 100 | > 100 | > 100 | > 100 | – | – | – | – | – | – | – | – | –
16 | C[N+]1=C2[B-](C(C)(C)C)=[N+](C(C)(C)C)[B-]2(C(C)(C)C)[N+](C)=C2[B-](C(C)(C)C)=[N+](C(C)(C)C)[B-]21C(C)(C)C (configuration not stated) | > 100 | > 100 | > 100 | > 100 | > 100 | > 100 | > 100 | > 100 | > 100 | – | – | – | – | – | – | – | – | –
17 | Cc1ccc([C@@H]2[C@@H](C(=O)c3ccccn3)[C@H](c3ccc(C)cc3)C[C@](O)(c3ccccn3)[C@H]2C(=O)c2ccccn2)cc1 | > 100 | > 100 | > 100 | > 39.2 | > 100 | > 64.4 | > 100 | > 100 | > 44.7 | – | – | – | – | – | – | – | – | –

Row | Compound | TGI [1] [µM] | TGI [2] [µM] | TGI [3] [µM] | TGI [4] [µM] | TGI [5] [µM] | TGI [6] [µM] | TGI [7] [µM] | TGI [8] [µM] | TGI [9] [µM] | GI50 [1] [µM] | GI50 [2] [µM] | GI50 [3] [µM] | GI50 [4] [µM] | GI50 [5] [µM] | GI50 [6] [µM] | GI50 [8] [µM] | GI50 [9] [µM] | GI50 [7] [µM]
18 | CC(C)(C)c1ccc2c(c1)CNCCNCc1cc(C(C)(C)C)ccc1OCC1(CO2)COc2ccc(C(C)(C)C)cc2CNCCNCc2cc(C(C)(C)C)ccc2OC1 | 1.97 | 2.93 | 2.74 | – | 0.786 | 3.12 | – | 3.56 | – | – | – | – | – | – | – | – | – | –
19 | O=c1nc(N2CCN(c3ccccc3)CC2)ccn1C1OC(CO)C(O)C1O (configuration not stated) | > 100 | > 100 | > 100 | > 100 | > 100 | > 100 | > 100 | > 100 | > 100 | – | – | – | – | – | – | – | – | –
20 | O=C(O)CN(CCNC(=O)OCC1c2ccccc2-c2ccccc21)CCNC(=O)OCC1c2ccccc2-c2ccccc21 | 54.7 | 49 | – | 70.6 | 51.3 | 35.6 | 67.7 | 42.3 | 49.1 | – | – | – | – | – | – | – | – | –
21 | O=C(CN1c2ccccc2Sc2ccccc21)N1CCNCC1 | > 100 | > 100 | – | > 100 | – | > 100 | > 100 | > 100 | > 100 | – | – | – | – | – | – | – | – | –
22 | Nc1cc(CO)cc(Nc2nc3ccc(Cl)cc3c3[nH]c4ccccc4c23)c1 | 15 | 19.1 | 8.33 | 22.2 | – | – | – | 29.3 | 57.3 | – | – | – | – | – | – | – | – | –
23 | OCC1CCCCCCCCCCC12SCCCS2 (configuration not stated) | – | > 100 | > 100 | > 100 | – | > 100 | – | > 100 | > 100 | – | – | – | – | – | – | – | – | –
24 | CC1=C2C(=O)NN=C2CCN1c1ccc(Br)cc1 | > 100 | > 100 | > 100 | > 100 | – | > 100 | – | > 100 | > 100 | – | – | – | – | – | – | – | – | –
25 | COc1ccccc1Nc1nc(N)nc(N)c1N=O | > 100 | > 100 | – | > 100 | > 100 | – | > 100 | > 100 | > 100 | – | – | – | – | – | – | – | – | –
26 | COc1cc2c(cc1OC)C1=Cc3cc(OC)c(OC)cc3C(C)N1C=C2 (configuration not stated) | > 100 | > 100 | – | > 100 | > 100 | > 100 | > 100 | > 100 | > 100 | – | – | – | – | – | – | – | – | –
27 | CC(O[Si](c1ccccc1)(c1ccccc1)C(C)(C)C)[C@H](NC(=O)OC(C)(C)C)C(=O)O[Si](c1ccccc1)(c1ccccc1)C(C)(C)C (some centres not stated) | 21.4 | 20.5 | 27 | 30 | 34.7 | – | 26.9 | 32.1 | 27.9 | – | – | – | – | – | – | – | – | –
28 | NC(=O)N/N=C(\Cc1nc2ccc(Cl)cc2[nH]c1=O)C(=O)Nc1ccc(Cl)cc1Cl | > 100 | > 100 | > 100 | > 100 | > 100 | > 100 | – | > 100 | > 100 | – | – | – | – | – | – | – | – | –
29 | CC(C)=CCOC(=O)C(C)=[N+]=[N-] | > 100 | > 100 | > 100 | – | > 100 | > 100 | – | > 100 | – | – | – | – | – | – | – | – | – | –
30 | CN(C)CCCOc1nc2c(c(=O)n(C)c(=O)n2C)n1C (tested in a mixture with another compound) | > 100 | > 100 | 66.3 | > 100 | – | > 100 | > 100 | > 100 | > 100 | – | – | – | – | – | – | – | – | –
31 | Nc1ccc2nc(-c3ccccn3)c(-c3ccccn3)nc2c1 | > 100 | > 100 | > 100 | – | > 100 | > 100 | > 100 | > 100 | > 100 | – | – | – | – | – | – | – | – | –
32 | COCCOCOc1ccc(OCc2ccccc2)cc1 | > 100 | – | > 100 | > 100 | > 100 | > 100 | > 100 | > 100 | > 100 | – | – | – | – | – | – | – | – | –
33 | Cc1cc(N(CCC#N)CCC#N)ccc1/C=N/NC(=O)c1cc(Cl)ccc1O | > 100 | > 100 | > 100 | > 100 | > 100 | > 100 | > 100 | – | > 100 | – | – | – | – | – | – | – | – | –
34 | O=C1/C(=C/c2ccccc2)N=C(c2ccccc2)N1n1c(-c2ccccc2)nc2ccccc2c1=O | > 100 | > 100 | – | > 100 | > 100 | > 100 | > 100 | > 100 | > 100 | – | – | – | – | – | – | – | – | –
